Data as given in US8552004B2, “Chemical compounds” (AstraZeneca AB, priority 2010, dated 2013).
Several values for one entry are separate records, joined by “and”; a condition that tells them apart may be missing. Equal entries are not always repeated. Where two headings read alike, the source gives them in different places.

Key:
HT29 cells = assay: Cellular SRB assay, potentiation of carboplatin (Test (c)); format: cell-based, human; details: for PF50: HT29
Experimental: (c) Cellular—SRB Assay The potentiation factor (PF50) for compounds is a measure of the fold increase in effect of a chemotherapeutic agent, when used in combination with an ATR inhibitor. Specifically, this is calculated as a ratio of the IC50 of control cell growth in the presence of a chemotherapeutic agent, typically carboplatin, divided by the IC50 of cell growth in the presence of this agent and the ATR inhibitor of interest. For this purpose, HT29 cells were seeded at the appropriate density to ensure exponential growth throughout the time of the assay (typically 1000-1500 cells) in each well of a 96-well plate, in a volume of 80 μl and incubated overnight at 37° C. Subsequently, cells were dosed with either DMSO vehicle, or treated with test compounds at fixed concentrations (typically 1, 0.3 & 0.1 μM). Following a one hour incubation at 37° C., the cells were further treated with a 10 point dose response of the chemotherapeutic agent, based on it's known sensitivity (typically 30-0.001 ug/ml for carboplatin). Cells were left to grow for 5 days at 37° C., after which time cell growth was assessed using the sulforhodamine B (SRB) assay (Skehan, P et al, 1990 New colorimetric cytotoxic assay for anticancer-drug screening. J. Natl. Cancer Inst. 82, 1107-1112.). Specifically, the media was removed and cells fixed with 100 μl of ice cold 10% (w/v) trichloroacetic acid. The plates were then incubated at 4° C. for 20 minutes prior to washing 4 times with water. Each well was then stained with 100 μL of 0.4% (w/v) SRB in 1% acetic acid for 20 minutes before a further 4 washes with 1% acetic acid. Plates were then dried for 2 hours at room temperature and the dye was solubilized by the addition of 100 μL Tris Base pH 8.5 into each well. Plates were shaken before measuring optical density at 564 nm (OD564). In order to calculate the PF50, the OD564 values obtained for the dose-response curve of chemotherapeutic agent were expressed as a percentage of the value obtained from cells treated with vehicle alone. Similarly, to act as a control for inclusion of the ATR inhibitor, values from the chemotherapeutic agent tested in combination with a fixed ATR inhibitor concentration were expressed as a percentage of the value obtained from cells treated with the corresponding concentration of ATR inhibitor alone. From these internally-controlled curves, IC50 values were calculated and the PF50 was determined as the ratio of these values, as described above. Compounds are compared using the PF50 value at concentrations of ATR inhibitor that show minimal growth inhibition on their own. IC50 values were calculated with XLfit (IDBS, Surrey UK) using the dose response, 4 parameter logistic model #203. Top (max) and bottom (min) curve fitting was free and not locked to 100% to 0% respectively.

ATR [1] = target: T1, ATR (Homo sapiens (Human), UniProt Q13535); assay: Enzyme Assay - ATR (Test (a)); format: biochemical; details: ATR from HeLa nuclear extract, GST-p53N66 substrate, 3 μM ATP, arithmetic mean
Experimental: ATR-antibody complexes were isolated from nuclear extract by incubating with protein A-Sepharose beads (Sigma, #P3476) for 1 hour and then through centrifugation to recover the beads. […] After 10 minutes with gentle shaking, ATP was added to a final concentration of 3 μM and the reaction continued at 37° C. for an additional 1 hour. […] Enhanced chemiluminescence solution (NEN, Boston, Mass.) was used to produce a signal and chemiluminescent detection was carried out via a TopCount (Packard, Meriden, Conn.) plate reader.

ATR [2] = target: T1, ATR; assay: Cellular Assay - ATR, phosphorylation of Chk1 (Ser 345) in HT29 cells after 4NQO (Test (b)); format: cell-based; details: cell assay Test (b); pChk1 Ser345 in HT29 cells, 3 μM 4NQO; arithmetic mean
From the text: ATM and ATR have distinct and overlapping responses to DNA damage. They must participate together and responses must be co-ordinated. Both pathways may be activated by ionising radiation, however only ATR is activated by UV. Since UV treatment is not practical for use in a high throughput cell assay, the UV mimetic 4NQ0 (Sigma) was chosen to activate the ATR DNA damage response pathway.
Chk1, a downstream protein kinase of ATR, plays a key role in DNA damage checkpoint control. Activation of Chk1 involves phosphorylation of Ser317 and Ser345 (regarded as the preferential target for phosphorylation/activation by ATR). […] Compounds dose ranges were created by diluting in 100% DMSO and then further into assay media (EMEM, 10% FCS, 1% glutamine) using a Labcyte Echo Acoustic dispensing instrument. Cells were plated in 384 well Costar plates at 9×10^4 cells per ml in 40 μL EMEM, 10% FCS, 1% glutamine and grown for 24 hrs. Following addition of compound the cells were incubated for 60 minutes. A final concentration of 3 μM 4NQ0 (prepared in 100% DMSO) was then added using the Labcyte Echo and the cells incubated for a further 60mins. The cells are then fixed by adding 40 μL 3.7% v/v formaldehyde solution for 20 minutes. After removal of fix, cells were washed with PBS and permeabilised in 40 μL of PBS containing 0.1% Triton™ X-100. Cells are then washed and 15 μl primary antibody solution (pChk1 Ser345) added and the plates incubated at 4° C. overnight. […] The plates are washed and left in 40 μl PBS. Plates were then read on an ArrayS can Vti instrument to determine staining intensities, and dose responses were obtained and used to determine the IC50 values for the compounds.

[3] = potentiation factor of Carboplatin at 0.03 uM ATR inhibitor
[4] = potentiation factor of Carboplatin at 0.1 uM ATR inhibitor
[5] = potentiation factor of Carboplatin at 0.3 uM ATR inhibitor
[6] = Homo sapiens, HT-29, HT29 cell growth, IC50 of Carboplatin + 0.03 uM ATR inhibitor, read-out: IC50
[7] = Homo sapiens, HT-29, HT29 cell growth, IC50 of Carboplatin + 0.1 uM ATR inhibitor, read-out: IC50
[8] = Homo sapiens, HT-29, HT29 cell growth, IC50 of Carboplatin + 0.3 uM ATR inhibitor, read-out: IC50

T1 sequence (Q13535 whole entry): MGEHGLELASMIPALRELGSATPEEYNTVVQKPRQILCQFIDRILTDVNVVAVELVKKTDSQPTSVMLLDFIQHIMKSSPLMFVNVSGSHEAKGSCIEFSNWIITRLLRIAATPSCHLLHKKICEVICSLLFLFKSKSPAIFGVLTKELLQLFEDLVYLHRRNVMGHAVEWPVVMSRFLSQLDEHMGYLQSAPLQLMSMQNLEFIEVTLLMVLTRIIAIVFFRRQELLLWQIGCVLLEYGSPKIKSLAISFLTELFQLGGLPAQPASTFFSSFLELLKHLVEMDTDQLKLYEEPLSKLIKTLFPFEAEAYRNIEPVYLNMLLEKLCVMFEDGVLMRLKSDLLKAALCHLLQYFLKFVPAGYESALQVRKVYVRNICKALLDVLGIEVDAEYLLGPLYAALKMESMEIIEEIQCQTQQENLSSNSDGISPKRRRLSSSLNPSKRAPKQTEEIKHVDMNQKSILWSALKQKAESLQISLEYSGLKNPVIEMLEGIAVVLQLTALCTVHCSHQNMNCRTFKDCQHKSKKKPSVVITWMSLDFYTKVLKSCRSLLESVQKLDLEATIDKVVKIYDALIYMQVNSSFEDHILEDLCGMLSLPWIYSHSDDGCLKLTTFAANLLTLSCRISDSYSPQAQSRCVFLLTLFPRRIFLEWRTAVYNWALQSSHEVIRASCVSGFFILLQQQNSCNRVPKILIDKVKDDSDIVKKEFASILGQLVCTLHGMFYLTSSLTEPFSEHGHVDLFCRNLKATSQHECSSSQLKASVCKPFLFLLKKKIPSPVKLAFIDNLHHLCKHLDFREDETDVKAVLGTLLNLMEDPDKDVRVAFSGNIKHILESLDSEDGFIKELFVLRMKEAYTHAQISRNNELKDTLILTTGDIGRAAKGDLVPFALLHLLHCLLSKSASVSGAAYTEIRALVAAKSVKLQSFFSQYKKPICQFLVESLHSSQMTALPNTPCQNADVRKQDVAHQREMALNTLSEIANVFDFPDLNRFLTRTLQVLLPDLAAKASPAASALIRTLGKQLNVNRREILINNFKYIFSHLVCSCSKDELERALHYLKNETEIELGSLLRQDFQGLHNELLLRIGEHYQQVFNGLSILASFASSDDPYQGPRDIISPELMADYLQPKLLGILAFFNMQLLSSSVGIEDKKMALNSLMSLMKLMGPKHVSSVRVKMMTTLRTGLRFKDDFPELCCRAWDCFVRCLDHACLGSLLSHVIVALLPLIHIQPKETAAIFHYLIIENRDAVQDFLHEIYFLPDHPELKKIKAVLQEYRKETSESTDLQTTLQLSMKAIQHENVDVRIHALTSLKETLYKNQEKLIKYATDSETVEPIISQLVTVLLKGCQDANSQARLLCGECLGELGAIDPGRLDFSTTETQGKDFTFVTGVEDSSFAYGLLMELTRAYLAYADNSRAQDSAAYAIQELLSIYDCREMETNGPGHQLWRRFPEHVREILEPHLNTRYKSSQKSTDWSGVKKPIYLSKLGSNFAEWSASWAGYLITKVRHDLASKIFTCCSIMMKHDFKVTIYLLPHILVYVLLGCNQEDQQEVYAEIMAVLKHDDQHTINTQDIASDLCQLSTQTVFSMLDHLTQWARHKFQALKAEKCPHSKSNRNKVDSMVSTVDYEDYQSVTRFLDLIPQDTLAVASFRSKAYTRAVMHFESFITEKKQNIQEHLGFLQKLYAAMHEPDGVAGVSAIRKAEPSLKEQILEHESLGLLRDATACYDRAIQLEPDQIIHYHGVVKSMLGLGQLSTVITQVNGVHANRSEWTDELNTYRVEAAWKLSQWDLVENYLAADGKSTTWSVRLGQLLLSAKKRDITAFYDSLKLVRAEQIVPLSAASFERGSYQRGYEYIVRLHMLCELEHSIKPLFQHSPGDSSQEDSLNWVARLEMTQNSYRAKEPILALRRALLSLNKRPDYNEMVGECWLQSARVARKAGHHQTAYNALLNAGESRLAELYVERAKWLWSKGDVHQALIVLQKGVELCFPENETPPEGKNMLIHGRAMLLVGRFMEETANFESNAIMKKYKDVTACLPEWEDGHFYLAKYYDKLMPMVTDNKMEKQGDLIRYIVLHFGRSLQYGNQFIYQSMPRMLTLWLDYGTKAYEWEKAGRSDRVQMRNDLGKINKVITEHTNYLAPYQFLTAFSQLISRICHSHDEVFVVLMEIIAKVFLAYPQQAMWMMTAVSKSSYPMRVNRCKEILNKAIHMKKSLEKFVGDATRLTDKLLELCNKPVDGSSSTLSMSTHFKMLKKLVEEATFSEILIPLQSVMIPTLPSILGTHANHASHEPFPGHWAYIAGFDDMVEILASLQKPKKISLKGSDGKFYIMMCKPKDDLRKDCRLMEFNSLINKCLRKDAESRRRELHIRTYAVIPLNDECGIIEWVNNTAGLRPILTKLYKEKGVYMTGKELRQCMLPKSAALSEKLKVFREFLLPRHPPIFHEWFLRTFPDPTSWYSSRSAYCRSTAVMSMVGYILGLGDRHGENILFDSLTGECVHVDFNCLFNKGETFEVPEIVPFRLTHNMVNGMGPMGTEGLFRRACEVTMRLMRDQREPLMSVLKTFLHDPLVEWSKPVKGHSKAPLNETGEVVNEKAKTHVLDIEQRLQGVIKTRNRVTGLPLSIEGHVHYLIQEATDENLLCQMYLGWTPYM
T1 sequence (Q8WXE1 whole entry partner): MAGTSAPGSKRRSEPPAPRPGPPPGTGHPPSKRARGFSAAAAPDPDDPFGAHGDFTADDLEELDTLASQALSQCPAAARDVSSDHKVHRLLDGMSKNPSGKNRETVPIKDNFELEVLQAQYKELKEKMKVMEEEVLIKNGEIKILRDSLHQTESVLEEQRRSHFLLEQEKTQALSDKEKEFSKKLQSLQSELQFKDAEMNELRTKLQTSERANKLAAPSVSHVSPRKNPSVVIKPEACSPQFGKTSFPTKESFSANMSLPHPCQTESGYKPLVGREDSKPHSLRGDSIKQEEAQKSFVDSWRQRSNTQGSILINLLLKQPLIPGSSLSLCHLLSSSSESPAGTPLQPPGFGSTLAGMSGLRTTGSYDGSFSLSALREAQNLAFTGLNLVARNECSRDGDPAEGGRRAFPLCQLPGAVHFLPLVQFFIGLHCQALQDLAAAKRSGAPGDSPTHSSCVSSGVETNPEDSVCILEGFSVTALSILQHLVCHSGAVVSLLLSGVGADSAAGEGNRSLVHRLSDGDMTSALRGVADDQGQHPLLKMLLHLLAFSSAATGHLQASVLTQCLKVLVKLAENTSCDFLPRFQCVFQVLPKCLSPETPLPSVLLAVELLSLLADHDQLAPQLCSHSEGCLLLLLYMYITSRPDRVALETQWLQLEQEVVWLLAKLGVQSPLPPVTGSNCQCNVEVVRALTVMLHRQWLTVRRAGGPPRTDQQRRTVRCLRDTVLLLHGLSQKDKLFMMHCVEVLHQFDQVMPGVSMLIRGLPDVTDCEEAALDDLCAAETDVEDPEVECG

Row | Compound | PF50 (HT29 cells; [3]) | PF50 (HT29 cells; [4]) | PF50 (HT29 cells; [5]) | IC50 (HT29 cells; [6]) | IC50 (HT29 cells; [7]) | IC50 (HT29 cells; [8]) | IC50 (ATR [1]) | IC50 (ATR [2]) | IC50 (HT29 cells; HT29 cell growth, Carboplatin alone, 5 days, SRB)
1 | C[C@@H]1COCCN1c1cc(C2([S@](C)(=N)=O)CC2)nc(-c2ccnc3[nH]ccc23)n1 [Example 2.02, 4-{4-[(3R)-3-Methylmorpholin-4-yl]-6-[1-((R)—S-methylsulfonimidoyl)cyclopropyl]pyrimidin-2-yl}-1H-pyrrolo[2,3-b]pyridine] | 1.331 | 1.966 | 4.211 | 9.39 µg/mL | 6.37 µg/mL | 2.99 µg/mL |  |  | 
2 | C[C@@H]1COCCN1c1cc(C[S@](C)(=N)=O)nc(-c2ccnc3[nH]ccc23)n1 [Example 1.01, 4-{4-[(3R)-3-Methylmorpholin-4-yl]-6-[((R)—S-methylsulfonimidoyl)methyl]pyrimidin-2-yl}-1H-pyrrolo[2,3-b]pyridine] |  |  |  |  |  |  | 34 nM | 581 nM | 
3 | CNc1nc2ccccc2n1-c1nc(N2CCOC[C@H]2C)cc(C2([S@](C)(=N)=O)CC2)n1 [Example 2.03, N-Methyl-1-{4-[(3R)-3-methylmorpholin-4-yl]-6-[1-((R)—S-methylsulfonimidoyl)cyclopropyl]pyrimidin-2-yl}-1H-benzimidazol-2-amine] | 2.057 | 5.887 | 18.721 | 5.74 µg/mL | 2.01 µg/mL | 0.63 µg/mL |  |  | 
4 | N.N.O=C([O-])C1(C(=O)[O-])CCC1.[Pt+2] [Carboplatin, reference compound] |  |  |  |  |  |  |  |  | 12.519 µg/mL and 11.798 µg/mL
